The subject of test [1] is human cervical carcinoma cell line (HeLa). Kind of test: MTT cytotoxic assay, HeLa. The settings on record: MTT, 48 h exposure, read-out: IC50 HeLa. The test is classed as cell-based. Here is the method:
The in vitro antiproliferative activity of DAA derivatives (1–5, 6a–k, 7a–k) were evaluated by MTT assay against human hepatocarcinoma cell line (SMMC-7721), human breast cancer cell line (MDA-MB-231), human cervical carcinoma cell line (HeLa), mouse colon cancer cell line (CT-26) and human normal hepatocyte cell line (QSG-7701). Nocodazole was co-assayed as the positive control and DMEM culture medium containing 0.1% DMSO was used as negative control. The results of the tested compounds expressed as IC50 values (concentration required to inhibit tumor cell proliferation by 50%) were presented in Table 1.
The human hepatocarcinoma cell line (SMMC-7721), human breast cancer cell line (MDA-MB-231), human cervical carcinoma cell line (HeLa), mouse colon cancer cell line (CT-26) and human normal hepatocyte cells (QSG-7701) used in this study were all obtained from Keygene Biotech., China. These cell lines were maintained in DMEM medium supplemented with 10% heat-inactivated fetal bovine serum in a humidified atmosphere of 5% CO2 at 37 °C.
The in vitro cytotoxic activities of the benzimidazole derivatives of dehydroabietic acid were evaluated against tested cell lines via the MTT colorimetric method. Briefly, different tumor cells were grown in DMEM medium supplemented with 10% fetal bovine serum, penicillin (100 U mL^−1), and streptomycin (50 μg mL^−1). Cells were harvested at log phase of growth and seeded in 96-well plates (100 μL per well at a density of 2 × 10^5 cells mL^−1). After 24 h incubation at 37 °C and 5% CO2 to allow cell attachment, cultures were exposed to various concentrations of the isolated compounds for 48 h. Finally, MTT solution (2.5 mg mL^−1 in PBS) was added (40 μL per well). Plates were further incubated for 4 h at 37 °C, and the formazan crystals formed were dissolved by adding 150 μL per well of DMSO. Absorption at 570 nm was measured with an ELISA plate reader. The results were expressed as IC50 values with standard deviations, which was defined as the concentration at which 50% survival of cells was discerned. Nocodazole was co-assayed as positive control.

Test [2] relates to SMMC-7721 cells. Kind of test: Wound healing assay (cell migration). Format: cell-based, human. The settings on record: 0.2 and 0.5 μM, up to 48 h. The source says:
Metastasis is a multistep process involving cancer cell motility and invasion which represents a key difficulty for cancer therapy. Thus, the inhibition of metastasis is vital for efficient cancer treatment. Microtubule plays an important role in cell motility and migration. As compound 6j inhibits tubulin polymerization, the capacity of migration inhibition was also investigated through wound healing assay.[45] In this assay, standard scratches (wounds) were made in confluent monolayers of SMMC-7721 cells and incubated with different concentrations (0, 0.1, 0.2 and 0.5 μM) of compound 6j. The migration of SMMC-7721 cells was recorded by microscopic observations at 0, 24 and 48 h.
SMMC-7721 cells (5 × 10^5 cells per well) were grown in a 12-well plate for 24 h. Scratches were made in confluent monolayers using 200 μL pipette tip. Then, wounds were washed twice with PBS to remove non-adherent cell debris. The media containing different concentrations (0, 0.1, 0.2 and 0.5 μM) of compound 6j were added to the corresponding wells. Cells which migrated across the wound area were photographed under the phase contrast microscope (Olympus 1X71 Inverted System Microscope, Olympus, Japan) after 24 and 48 h treatment.

Test [3] concerns SMMC-7721 cells. Kind of test: Annexin V-FITC/PI dual staining assay (apoptosis). The test is classed as cell-based, human. The settings on record: highest concentration 2.0 μM, 24 h; control 10.12%. The method, then: In order to investigate whether compound 6j could induce cell apoptosis, SMMC-7721 cells treated with different concentrations of compound 6j were subjected to Annexin V-FITC/propidium iodide (PI) dual staining followed by flow cytometry assay.
Apoptosis was discriminated with the Annexin V-FITC/PI dual staining assay. SMMC-7721 cells were seeded at 1 × 10^5 cells per well in 10% fetal calf serum (FBS)-DMEM into six-well plates and treated with or without compound 6j for 24 h. The cells were detached with 0.25% trypsin, washed twice with ice-cold PBS and then resuspended in 500 μL of 1× binding buffer (0.1 M Hepes/NaOH (pH 7.4), 1.4 M NaCl, 25 mM CaCl2). The solution was transferred into 5 mL culture tubes, and 5 μL of Annexin V-FITC (BD, Pharmingen) and 5 μL of PI were added to each tube. The cells were gently vortexed, and incubated for 30 min at 25 °C in the dark. The analysis was performed on a flow cytometry (Becton-Dickinson FACSCalibur, New York, USA).

In general, IC50 refers to the concentration needed to halve the response being measured. Consider `COC(=O)[C@]1(C)CCC[C@]2(C)c3cc(Br)c4nc(-c5ccc6[nH]ccc6c5)[nH]c4c3CCC12` (stereo partly drawn) [Compound 6j, Methyl 2′-(1H-indol-5-yl)-12-bromo-13,14-imidazolyl-deisopropyl-dehydroabietate], for which, in test [1], the IC50 was determined as 230 ± 50 nM. Besides, the “wound healing (cell migration)” value with SMMC-7721 cells [2] is “healing was strongly suppressed”. Moreover, in the test with SMMC-7721 cells [3], the “percentage of early and late apoptotic cells” value came out at 80.08%.

The values above are taken from publication PMC9080489, “Synthesis and biological evaluation of 2-aryl-benzimidazole derivatives of dehydroabietic acid as novel tubulin polymerization inhibitors” (RSC Advances, 2018).
